# Data from publication PMC5877539, “Biochemical and MALDI-TOF Mass Spectrometric Characterization of a Novel Native and Recombinant Cystine Knot Miniprotein from Solanum tuberosum subsp. andigenum cv. Churqueña” (International Journal of Molecular Sciences, 2018).
# Non-standard residues stand in square brackets, D forms with d. No end group written: not given here. pGlu = O=C1CC[C@@H](C(=O)O)N1
# T1: Carboxypeptidase B from porcine pancreas (porcine, UniProt P09955 111-416)
# T1 construct: carboxypeptidase B from porcine pancreas; also called pCPB; porcine CPB; source: bought: Sigma-Aldrich (from porcine pancreas)
# T1 sequence (looked up): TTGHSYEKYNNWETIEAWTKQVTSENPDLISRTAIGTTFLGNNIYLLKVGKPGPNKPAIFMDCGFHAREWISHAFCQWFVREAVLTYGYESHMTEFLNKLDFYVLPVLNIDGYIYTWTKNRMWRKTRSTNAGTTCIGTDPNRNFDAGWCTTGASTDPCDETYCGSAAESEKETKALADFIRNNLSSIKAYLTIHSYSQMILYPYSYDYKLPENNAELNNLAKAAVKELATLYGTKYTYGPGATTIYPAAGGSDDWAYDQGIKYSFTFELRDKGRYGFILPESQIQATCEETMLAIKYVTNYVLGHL
# T2: Carboxypeptidase A from bovine pancreas (bovine, UniProt P00730 111-419)
# T2 construct: carboxypeptidase A from bovine pancreas; Free in solution for the Ki determinations; also called bCPA; bovine CPA; source: bought: Sigma-Aldrich (from bovine pancreas)
# T2 sequence (looked up): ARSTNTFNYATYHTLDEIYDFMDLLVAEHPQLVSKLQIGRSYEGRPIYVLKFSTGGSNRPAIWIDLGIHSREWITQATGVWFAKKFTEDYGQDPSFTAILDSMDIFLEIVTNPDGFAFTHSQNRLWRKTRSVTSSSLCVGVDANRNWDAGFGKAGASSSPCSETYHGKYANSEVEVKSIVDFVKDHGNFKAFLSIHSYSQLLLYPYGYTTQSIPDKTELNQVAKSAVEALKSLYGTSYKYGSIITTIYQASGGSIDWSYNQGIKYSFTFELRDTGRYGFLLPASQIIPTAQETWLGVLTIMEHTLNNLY
# Tests used:
# [1] = molecular target: porcine carboxypeptidases B (pCPB); assay: Inhibition kinetic constant (Ki), pCPB, pre-steady-state tight-binding (Morrison) assay; assay type: biochemical; conditions: against pCPB
# Description: (§1) The inhibitory properties of the purified rchuPCI against bCPA and pCPB were determined and compared with a recombinant version of the canonical PCI. The Ki values were evaluated following a pre-steady-state based protocol, according to the Morrison model for tight-binding inhibitors. […] When compared to the canonical PCI, the Ki values obtained for rchuPCI against bCPA and pCPB were about 2-fold higher than the Ki values obtained for recombinant PCI (rPCI).
# (§2) The method for tight binding inhibitors was used for the Ki determination. Inhibitory assays were performed at 25 °C under equilibrium conditions ([E0]/Ki ≤ 10) with a fixed concentration of bCPA or pCPB and substrate (0.1 mM N-(4-methoxyphenylazoformyl)-Phe-OH or 0.1 mM N-(4-methoxyphenylazoformyl)-Arg-OH, respectively) in Tris-HCl buffer (pH 7.5) containing 0.2 M NaCl. Samples were pre-incubated for 15 min at RT before the addition of substrate. Then, the decrease in absorbance was measured at 340 nm in a Victor3 (Perkin Elmer, Boston, MA, USA) plate reader. Ki values were calculated by direct fitting of the fractional activities (vi/v0) to the Morrison equation and assuming a competitive inhibition modality (Equations (3) and (4)). (3) vi/v0=1−([E]T+[I]T+Kiapp)−([E]T+[I]T+Kiapp)^2−4[E]T[I]T/2[E]T (4) Ki=Kiapp/([S0/KM])+1 […]
# [2] = molecular target: bovine carboxypeptidases A (bCPA); assay: Inhibition kinetic constant (Ki), bCPA, pre-steady-state tight-binding (Morrison) assay; assay type: biochemical; conditions: against bCPA
# Description: as §1, §2
# [3] = tested on: immobilized CPA; assay: C-terminal cleavage by immobilized CPA; parameters: species or system bovine; conditions: affinity chromatography eluate, MALDI-TOF
# Description: (§3) A 50 mL aliquot of the clarified crude extract (with a protein concentration of (200 μg·mL^−1) was loaded onto a 2.0 mL bovine CPA-glyoxyl-agarose column prepared in house. The affinity resin was prepared in house as described. Before the addition of the crude extract, the affinity resin was previously equilibrated with 10 column volumes (cv) 0.1 M Tris-HCl buffer (pH 7.2) containing 0.2 M NaCl. Then, the column was washed with 5 cv of equilibration buffer. The retained proteins were eluted with two different buffers: (1) HCl solution with pH = 5.0 (2 cv) and (2) […] solution with pH = 3.0 (2 cv). The eluted fractions were adjusted immediately to pH 7.0 by adding NaOH. All the fractions that presented CPA inhibitory activity were pooled and stored at −80 °C until analysis.
# (§4) For MALDI-TOF mass spectrometric analysis, samples from the different purification steps, as well as from the clarified crude extract were mixed with an equal volume of α-cyano-4-hydroxycinnamic acid (hcca) matrix solution. Previously, the samples were desalted by dialysis in 0.022 μm filters. The matrix-sample mixture was spotted onto MT 384 target plate polished steel T F from Bruker Daltonics, and the spots were evaporated to dryness at room temperature. […] The resultant tryptic peptides were dissolved in 10 μL of 0.1% CF3CO2H (v/v) an analyzed by MALDI-TOF in the presence of hcca matrix. […]
# [4] = tested on: bovine CPA; assay: Affinity chromatography on CPA-glyoxyl-agarose (binding to immobilized CPA), MALDI-TOF read-out; conditions: heat-treated extract (100 °C, 60 min); 0.1 M Tris-HCl pH 7.2, 0.2 M NaCl
# Description: as §3, §4
# [5] = cited from earlier work
# Text: To date, a large number of CKMPs have been identified and isolated from natural sources (i.e., from arthropods, vertebrates, mollusks, fungi, plants, and so on). These molecules belong to more than 34 protein families and are involved in diverse biological functions. In animals, CKMPs are secreted peptides that function as extracellular signaling molecules involved in the regulation of important cellular functions such as cell growth or cell development. In plants, CKMPs are often involved in defense against external pathogens. Typically, the latter group functions as prote ...
# [6] = tested on: immobilized CPA; conditions: after binding of the inhibitor to immobilized CPA; cited from earlier work
# Text: For further characterization, the initial heat-treated crude extract, the flow-through (fraction containing the non-retained peptides and proteins), and the elution from the affinity chromatography containing the final purified protein were subjected to MALDI-TOF mass spectrometry. A detailed analysis of the peaks present in the mass spectra for the initial heat-treat ...
# [7] = tested on: pancreatic carboxypeptidases A and B (CPA and CPB, respectively); conditions: in vitro, by pancreatic carboxypeptidases A and B; cited from earlier work
# Text: (§5) A number of CKMPs function as potent protease peptide inhibitors (PPIs). Among them, the potato carboxypeptidase inhibitor (PCI) was the first CKMPs to be discovered. […] The first crystal structure of this 39 amino acid plant protease inhibitor was reported in 1980 by Rees and Liscomb. After almost 40 years of intense research in the field of proteases, only a small number of metallocarboxypept ...
# [8] = tested on: adenocarcinoma cell; conditions: in vitro, acting as epidermal growth factor (EGF) antagonist; cited from earlier work
# Text: as §5
# [9] = tested on: metallocarboxypeptidases (MCPs); conditions: cited from earlier work
# Text: as §5
# [10] = ref 34 (Wang and co-workers, 2006); cited from earlier work
# Text: as §5
# [11] = MALDI-TOF MS of heat-treated samples (thermal stability); assay type: physicochemical; conditions: crude extract heat-treated 60 min; MALDI-TOF linear positive mode
# Description: (§6) Aliquots with 1.0 mL of the clarified crude extract (see Section 3.2) where incubated at 60, 70, 85 or 100 °C for 60 min. After incubation the samples were centrifuged at 14,500× g for 90 min at 4 °C to eliminate all thermally denatured proteins. Afterwards, the total protein content and the inhibitory activity of the non-treated crude extract and heat-treated samples were determined.
# For MALDI-TOF mass spectrometric analysis, samples from the different purification steps, as well as from the clarified crude extract were mixed with an equal volume of α-cyano-4-hydroxycinnamic acid (hcca) matrix solution. Previously, the samples were desalted by dialysis in 0.022 μm filters. The matrix-sample mixture was spotted onto MT 384 target plate polished steel T F from Bruker Daltonics, and the spots were evaporated to dryness at room temperature. Mass spectra were acquired on a Bruker Daltonics Ultraflextreme MALDI-TOF mass spectrometer (Bruker Daltonics, Billerica, MA, USA) operating in a linear positive mode. PMF analysis was performed for the identification of nchuPCI. In brief, an in situ tryptic digestion of the tris-tricine-SDS-PAGE electrophoresis bands as performed by following a well described protocol. The resultant tryptic peptides were dissolved in 10 μL of 0.1% CF3CO2H (v/v) an analyzed by MALDI-TOF in the presence of hcca matrix. […]
# [12] = tested on: bovine CPA; assay: CPA inhibitory activity after heat treatment (thermal stability); assay type: physicochemical; conditions: crude extract, 100 °C for 60 min; Bradford and CPA inhibition
# Description: The bCPA inhibitory activity of the crude extract and the heat-treated samples was determined similarly as described above for the determination of the IC50 values. However, in this case a unique concentration of the sample was tested. bCPA inhibitory activity (%) was calculated by using the following equation:(2) Y=(ΔAbs340nm/Δt(min))potato extract/(ΔAbs340nm/Δt(min))control×100
# as §6
# [13] = tested on: calcium channel; conditions: cited from earlier work
# [14] = molecular target: T1, Carboxypeptidase B from porcine pancreas; assay: enzyme inhibition kinetics (Morrison equation for tight-binding inhibitors); 25 °C, equilibrium conditions ([E0]/Ki <= 10), fixed bCPA or pCPB, 0.1 mM N-(4-methoxyphenylazoformyl)-Phe-OH (bCPA) or -Arg-OH (pCPB), Tris-HCl pH 7.5, 0.2 M NaCl; pre-incubated 15 min at RT; absorbance at 340 nm; competitive inhibition assumed; conditions: both partners purified
# [15] = molecular target: T2, Carboxypeptidase A from bovine pancreas; assay: as above; conditions: both partners purified
# [16] = compared to recombinant PCI (rPCI)
molecule,measurement,setting,value
"QRDPDPICNKPCKTHDDCSGAWFCQACWNSARTCGPYVG (disulfide (positions not given here)) [rchuPCI, recombinant product of mature chuPCI (39 amino acids) expressed in E. coli BL21 (DE3)]",All Ki values determined (range in words),[1],nanomolar range
same,Ki values obtained for rchuPCI compared with rPCI (fold higher),[1]; [16],about 2 fold
same,All Ki values determined (range in words),[2],nanomolar range
same,Ki values obtained for rchuPCI compared with rPCI (fold higher),[2]; [16],about 2 fold
"[pGlu]RDPDPICNKPCKTHDDCSGAWFCQACWNSARTCGPYVG (disulfide (positions not given here)) [IIIa, full-length chuPCI post-translationally modified with an N-terminal pyroglutamic acid]",C-terminal cleavage by immobilized CPA (mass shift),[3],loss of 57 Da
same,Retention by immobilized CPA (MALDI-TOF of flow-through vs initial extract),[4],clear fading of the molecular ion intensities
"-RDPDPICNKPCKTHDDCSGAWFCQACWNSARTCGPYVG (disulfide) [IIa, chuPCI lacking the N-terminal amino acid]",C-terminal cleavage by immobilized CPA (mass shift),[3],loss of 57 Da
same,Retention by immobilized CPA (MALDI-TOF of flow-through vs initial extract),[4],clear fading of the molecular ion intensities
"kalata B1: CKMP isolated from plants (GLPVCGETCVGGTCNTPGCTCSWPVCTRN; ends and bridges not checked; also: cystine-knot disulfides, pairing not given here; UniProt P56254 89-117, looked up)",Antibacterial and/or antifungal activities,[5],antibacterial and/or antifungal activities
"PCI: potato carboxypeptidase inhibitor, 39 amino acid plant protease inhibitor from Solanum tuberosum (QQHADPICNKPCKTHDDCSGAWFCQACWNSARTCGPYVG)",C-terminal cleavage by immobilized CPA,[6],a C-terminal glycine residue is usually cleaved by the immobilized CPA
same,Blocking of C-terminal cleavage (and consequent inactivation) of human EGF,[7],blocks the C-terminal cleavage
same,Inhibition of adenocarcinoma cell growth,[8],inhibit in vitro adenocarcinoma cell growth
same,Inhibition of metallocarboxypeptidases,[9],inhibits different enzymes within the family of metallocarboxypeptidases
same,Antithrombotic action,[10],can act as an antithrombotic drug
"[pGlu]RDPDPICNKPCKTHDDCSGAWFCQACWNSARTCGPYVG (disulfide (positions not given here)) [native chuPCI, Churqueña]",Heat resistance of the 4309 Da peak/miniprotein,[11],heat-resistant molecule
same,Temperature stability of CPA inhibitory activity,[12],"high temperature stability, even after thermal treatment at 100 °C for 60 min"
ω-conotoxin MVIIa,Calcium channel block,[13],calcium channel blocker
"QQHADPICNKPCKTHDDCSGAWFCQACWNSARTCGPYVG (natural protein, Solanum tuberosum subsp. tuberosum, UniProt P01075 1-39, looked up, also called canonical PCI) [recombinant canonical potato carboxypeptidase inhibitor (PCI)]",Ki,[14],10.7 ± 1.17 nM
same,Ki,[15],4.3 ± 0.46 nM
"QRDPDPICNKPCKTHDDCSGAWFCQACWNSARTCGPYVG (natural protein, also: N-terminal Gln partly cyclised to pyroglutamate, mature chuPCI (39 amino acids) of the chuPCI precursor, S. tuberosum subsp. andigenum cv; Churqueña; Cloned in pIN-III-OmpA3 with the OmpA3 signal peptide at the N-terminus for secretion; The mass of the purified protein (4326.3 Da) fits the 39 residues without the signal peptide; Three disulfide bonds (Cys8-Cys24, Cys12-Cys27, Cys18-Cys34); also called rchuPCI; recombinant churqueña PCI; source: …)",Ki,[14],19.8 ± 1.82 nM
same,Ki,[15],10.8 ± 1.55 nM
